Results from US6660501B2, “Production of proteins by cell culture” (Lonza Group, AG, priority 1986, dated 2003).

Columns and labels:
[1] = system: hybridoma cells (as Example 1, NB1/19); assay: Butyrate-enhanced antibody production in hybridoma cells cultured in serum supplemented medium; format: cell-based, mouse; conditions: DMEM + 10% foetal calf serum
Method: (§1) The IgM secreting mouse hybridoma cell line NB1/19 was grown in suspension culture in Dulbeccos Modified Eagles Minimum (DMEM) serum-free medium containing albumin, insulin, transferrin, gentamycin and other additives as required to cultivate cells in suspension culture. The NB1/19 cell line produces a mouse monoclonal antibody having specificity for an antigenic determinant of human B-type blood cells. The preparation of this call line is described in detail in the specification of British Patent GB 2097425B. It will be appreciated, however, that other hybridoma cell lines may be used in place of this particular cell line as appropriate in this and other examples.
The cells were grown to a viable cell density of 1.0-1.5×10^6 cells/ml. Viable cell density was determined by counting the number of cells which exclude trypan blue, a staining agent. A sample of the suspension culture was diluted in a serum-free medium to a density of about 1.3×10^5 cells/ml. […]
(§2) The shake flasks were gassed with 5% CO2-95% air, and sealed and incubated with shaking at 37° C. for up to 207 hours. (Table 1). Samples ([…]) were removed from the culture by pipette. 100 μl was used to determine viable cell count and the reminder centrifuged at 300×g for five minutes. Supernatants were stored at −20° C. prior to antibody determination by enzyme linked immunosorbent assay (ELISA).
The protocol for this experiment is similar to that outlined in Example 1, except that the cells were cultured in Dulbeccos Modified Eagles Minimum medium supplemented with 10% foetal calf serum.

NT1/19 cells = assay: Effect of varying alkanoates on antibody production from hybridoma cells; format: cell-based; conditions: for AVERAGE DATA FROM EXP. #1 & #2: average of relative productivity, control 100.00; for PRODUCTIVITY EXP #2: control 2.39
Method: as §1
(§3) The cells were grown to a viable cell density of 1.0-1.5×10^6 cells/ml. Viable cell density was determined by counting the number of cells which exclude trypan blue, a staining agent. A sample of the suspension culture was diluted in a serum-free medium to a density of about 1.3×10^5 cells/ml. Aliquots of 50 ml in volume were dispensed into shake flasks and sodium butyrate added at concentrations of 0.1 mM, 0.3 mM, 0.5 mM and 1.0 mM.
as §2
NT1/19 cells were cultured as in Example 1. Varying straight chain sodium alkanoate salts (propionate, butyrate, bentanoate or hexanoate) were added to the inoculum at the concentrations indicated in Table 5.

hybridoma cell line C = assay: Harvest antibody titre, hybridoma cell line C; format: cell-based; conditions: DMEM + 10% FCS, 0.50 mM butyrate, control 51
Method: (§4) Hybridoma cells were grown in suspension culture in either serum-free medium (see Example 1) or in DMEM supplemented with 10% (v/v), heat inactivated foetal calf serum. Cells were cultured in either roller bottles or in shake-flasks, as in Example 1. Sodium butyrate was added to cultures immediately after inoculation.

[2] = system: IgM secreting mouse hybridoma cell line NB1/19; assay: Effect of sodium butyrate on hybridoma cell growth and antibody production, serum-free medium, shake flasks (ELISA); format: cell-based
Method: as §1, §3, §2

hybridoma cell line G = assay: Harvest antibody titre, hybridoma cell line G; format: cell-based; conditions: SFM, control 10
Method: as §4

HeLa-cell cultures = conditions: cited from earlier work
[3] = system: Syrian hamster cells with plasmid containing SV40 genome and HSV-TK gene; conditions: concentrations ranging from 1 mM to 5 mM; Yuan et al; cited from earlier work

Which results are given for CCCC(=O)[O-].[Na+] [sodium butyrate]?
Average specific rate of antibody production ([1]; 0.5 mM sodium butyrate): 39 μg/10^6 cells/day; Maximum antibody concentration ([1]; 0.5 mM sodium butyrate): 54 µg/mL; Average specific rate of antibody production ([1]; 0.75 mM sodium butyrate): 69 μg/10^6 cells/day; Maximum antibody concentration ([1]; 0.75 mM sodium butyrate): 55 µg/mL; AVERAGE DATA FROM EXP. #1 & #2 (NT1/19 cells; 0.50 mM alkanoate): 204.39; PRODUCTIVITY EXP #2 (NT1/19 cells; 0.50 mM alkanoate): 4.7 ug antibody per 10^5 cells; PRODUCTIVITY EXP. #1 (NT1/19 cells; 0.50 mM alkanoate, control 3.30): 7.00 ug antibody per 10^5 cells; AVERAGE DATA FROM EXP. #1 & #2 (NT1/19 cells; 1.00 mM alkanoate): 368.20; PRODUCTIVITY EXP #2 (NT1/19 cells; 1.00 mM alkanoate): 8.80 ug antibody per 10^5 cells; HARVEST ANTIBODY TITER (hybridoma cell line C): 71 mg/L; Average specific rate of antibody production ([2]; 0.1 mM sodium butyrate): 26 μg/10^6 cells/day; antibody concentration ([2]; 0.1 mM sodium butyrate, 41 hours): 34 µg/mL; antibody concentration ([2]; 0.1 mM sodium butyrate, 87 hours): 90 µg/mL; antibody concentration ([2]; 0.1 mM sodium butyrate, 137 hours): 128 µg/mL; Average specific rate of antibody production ([2]; 0.3 mM sodium butyrate): 26 μg/10^6 cells/day; antibody concentration ([2]; 0.3 mM sodium butyrate, 41 hours): 41 µg/mL; antibody concentration ([2]; 0.3 mM sodium butyrate, 87 hours): 114 µg/mL; antibody concentration ([2]; 0.3 mM sodium butyrate, 137 hours): 147 µg/mL; Average specific rate of antibody production ([2]; 0.5 mM sodium butyrate): 31 μg/10^6 cells/day; antibody concentration ([2]; 0.5 mM sodium butyrate, 41 hours): 50 µg/mL; antibody concentration ([2]; 0.5 mM sodium butyrate, 87 hours): 173 µg/mL; antibody concentration ([2]; 0.5 mM sodium butyrate, 137 hours): 173 µg/mL; Average specific rate of antibody production ([2]; 1.0 mM sodium butyrate): 52 μg/10^6 cells/day; antibody concentration ([2]; 1.0 mM sodium butyrate, 41 hours): 39 µg/mL; antibody concentration ([2]; 1.0 mM sodium butyrate, 137 hours): 180 µg/mL; antibody concentration ([2]; 1.0 mM sodium butyrate, 207 hours): 256 µg/mL; HARVEST ANTIBODY TITER (hybridoma cell line G; 0.25 mM butyrate): 11 mg/L; HARVEST ANTIBODY TITER (hybridoma cell line G; 0.50 mM butyrate): 13 mg/L; human choriogonadotropin synthesis (HeLa-cell cultures; 1 mM, Ghosh et al, Cox & McClure): induce human choriogonadotropin synthesis; cell growth (HeLa-cell cultures; butyrate treatment): inhibited cell growth; expression of SV40 and HSV-TK genes compared with control values [3]: inhibited the expression of both genes
